Experiment [1] relates to T1, 64′-OMT.
T1 construct: gene 6-OMT; pET-21d, no vector-derived peptides, E. coli BL21(DE3), purified; subunit ca. 40 kDa, native ca. 63 kDa, dimer
The experiment in a line: [3H]methyl transfer assay, double-reciprocal plots with secondary replots. In kind it is biochemical, Coptis japonica. The note with it: 30 °C.

The target in experiment [2] is T2, 6-OMT (Coptis japonica, UniProt Q9LEL6).
T2 construct: full length, recombinant in E. coli, crude lysate; dimer
The experiment in a line: LC/MS product analysis. It is filed as biochemical. Conditions: 1 mM acceptor, 1 mM AdoMet, pH 7.5, 30 °C; presumed 3'-O-methylation; crude E. coli lysate.

In experiment [3] the target is T1, 64′-OMT. The experiment can be described thus: [3H]methyl transfer assay, inhibition kinetics. Conditions: competitive with AdoMet; varied substrate AdoMet, methyl acceptor norlaudanosoline; 30 °C. It is filed as biochemical, Coptis japonica.

Molecules are shown by their SMILES.

Usually Km stands for the concentration of substrate that gives half-maximal velocity. One may read the Ki as a dissociation constant, usually derived from enzyme kinetics or from competition with a known ligand.

T2 sequence (Q9LEL6 whole entry): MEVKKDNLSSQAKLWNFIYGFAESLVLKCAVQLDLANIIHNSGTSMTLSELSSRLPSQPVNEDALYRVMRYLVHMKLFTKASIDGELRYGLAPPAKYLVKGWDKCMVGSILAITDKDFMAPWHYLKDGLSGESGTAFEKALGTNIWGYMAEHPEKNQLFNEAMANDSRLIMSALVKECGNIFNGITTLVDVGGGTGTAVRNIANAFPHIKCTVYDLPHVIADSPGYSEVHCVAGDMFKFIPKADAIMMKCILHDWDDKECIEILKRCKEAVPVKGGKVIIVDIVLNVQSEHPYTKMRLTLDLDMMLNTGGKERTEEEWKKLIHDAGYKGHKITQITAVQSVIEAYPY

Regarding `Oc1ccc(CC2NCCc3cc(O)c(O)cc32)cc1O` (racemic) [(R,S)-norlaudanosoline], the Km in experiment [1] (co-substrate [3H]AdoMet varied) is 109 µM.
On to `COc1cc2c(cc1O)[C@H](Cc1ccc(O)c(O)c1)N(C)CC2` [3′-hydroxy-N-methylcoclaurine], for which, in experiment [2], the LC/MS product analysis is on record as 6-OMT showed a weak but evident peak that was distinct.
With `Nc1ncnc2c1ncn2[C@@H]1O[C@H](CSCC[C@H](N)C(=O)O)[C@@H](O)[C@H]1O` [AdoHcy], the affinity in experiment [3] corresponds to a Ki of 70 µM.
Consider `C[S+](CC[C@H](N)C(=O)O)C[C@H]1O[C@@H](n2cnc3c(N)ncnc32)[C@H](O)[C@@H]1O` (stereo partly shown) [AdoMet], for which the Km in experiment [1] (co-substrate (R,S)-norlaudanosoline varied, labelled compound) was 187 µM.

(Values after paper PMC3066540, “Molecular characterization of O-methyltransferases involved in isoquinoline alkaloid biosynthesis in Coptis japonica” (Proceedings of the Japan Academy. Series B, Physical and …, 2010).)
